According to the NIST ThermoML archive (doi:10.1016/j.jct.2016.07.048):
± gives the expanded uncertainty stated by the source.

Key:
[1] = Crystal; DTA
[2] = Molar enthalpy of transition or fusion; conditions: Crystal; DSC

Question: Which Normal melting temperature [1] does the source give for CCCCCCOC(=O)NC(=N)c1ccc(NCc2nc3cc(C(=O)N(CCC(=O)OCC)c4ccccn4)ccc3n2C)cc1.CS(=O)(=O)O [Dabigatran etexilate mesylate] here?
Answer: 190.09 ± 1.1 °C

Question: What about the “Molar enthalpy of transition or fusion” value [2] of the same compound?
Answer: 15.4 ± 0.693 kcal/mol
